Values joined by “and” are separate entries in the source; they are usually repeats but may differ in a detail not shown here. Equal entries are not always repeated.
Assays:
[1] = target: T1, human FXR-LBD (GST-FXR-LBD) (Homo sapiens, UniProt Q96RI1); experiment: HTRF coactivator recruitment assay, agonist mode; type: biochemical
T1 construct: the human FXR-LBD (residues 234–472) was expressed as a GST fusion protein GST-FXR-LBD; made in house; host or cells: E. coli BL21(DE3)
T1 sequence (Q96RI1 234-472 isoform Q96RI1-2): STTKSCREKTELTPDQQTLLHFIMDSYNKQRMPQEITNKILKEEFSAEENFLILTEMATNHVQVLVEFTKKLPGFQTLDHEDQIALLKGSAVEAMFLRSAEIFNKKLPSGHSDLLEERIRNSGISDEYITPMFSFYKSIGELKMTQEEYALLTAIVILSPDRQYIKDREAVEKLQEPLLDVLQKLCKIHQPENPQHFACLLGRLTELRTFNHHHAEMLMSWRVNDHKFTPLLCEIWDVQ

[2] = target: T2, human FXR-LBD (6His-FXR-LBD) (Homo sapiens, UniProt Q96RI1); experiment: Surface plasmon resonance (SPR) analysis; type: binding
T2 construct: human FXR (residues 243–472) was expressed and purified as an amino-terminal 6His fusion protein; made in house; host or cells: E. coli BL21(DE3)
T2 sequence (Q96RI1 243-472 isoform Q96RI1-2): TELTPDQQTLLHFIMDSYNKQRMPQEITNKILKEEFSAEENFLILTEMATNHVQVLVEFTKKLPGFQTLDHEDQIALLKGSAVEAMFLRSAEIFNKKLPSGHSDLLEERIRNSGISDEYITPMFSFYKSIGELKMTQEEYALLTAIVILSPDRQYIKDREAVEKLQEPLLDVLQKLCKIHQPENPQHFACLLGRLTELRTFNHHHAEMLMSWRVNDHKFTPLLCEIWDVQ
Method: . First, 40μg/mL purified 6His-FXR-LBD protein was immobilized on a CM5 sensor chip (29149603; Cytiva) by amine coupling reaction. In detail, the carboxymethyl dextran surface of the CM5 sensor chip was activated by injecting a 1:1 mixture of 0.4M 1-ethyl-3-(3-dimethylaminopropyl)-carbodiimide (EDC) and 0.1M N-hydroxysuccinimide (NHS) for 7 min, then the 6His-FXR-LBD protein was injected and immobilized on the activated surface for 5 min, and subsequently the excess activated groups on the surface were deactivated by 1.0M ethanolamine (pH 8.5). Then, seven different concentrations of compounds (including 3.125μM , 6.25μM , 12.5μM , 25μM , 50μM , 100μM , and 200μM ) were prepared with HBS-EP buffer [ 10 mM HEPES, 150 mM NaCl, 3 mM EDTA, 0.005% (v/v) surfactant P20, pH 7.4], and the final DMSO concentration was adjusted to 2%. The samples were injected into the chip at a flow rate of 30μL/min for 60 s, followed by dissociation for 120 s at 25°C. One of the flow cells on the chip without FXR-LBD protein was used as a negative control. The responses were recorded during the experiment, and the sensorgrams were obtained by subtracting the binding response of the negative control. The equilibrium dissociation constant (KD) was determined by steady-state fitting mode with Biacore T200 Evaluation Software (version 3.2; Cytiva).

C57BL/6N mice [3] = experiment: Hepatic triglyceride (TG enzymatic assay kit); type: in vivo; conditions: for Hepatic TG: individual mice
Method: (§1) Male C57BL/6N mice (8 wk of age) were purchased from Beijing Vital River Laboratory Inc. and acclimated to the environment for 2 wk before they were used for experiments. The environment was maintained at 22°C, in a 12-h light/dark cycle with 50%–60% relative humidity and fed standard chow diets. Because the male mice are more sensitive to metabolic disease than female mice and the estrous cycle of female mice may induce variability to the metabolic phenotypes,[50] only male mice were used in this study. Animals were randomly assigned to control or TPHP treatment groups (five mice per group). Mice were exposed to corn oil (control) purchased from Sigma-Aldrich (C8267) or TPHP (dissolved in corn oil) at 10mg/kg or 50mg/kg body weight (BW) by daily oral gavage for 35 d. The administered volume was 5mL/kg BW. The TPHP corn oil solutions for administration were prepared by dissolving the TPHP in corn oil, and the solutions were stored at −20°C and freshly prepared each week. BW was measured every other day during the dosing period. At the end of experiments, the mice were anesthetized with isoflurane, then blood was collected from the retro-orbital sinus via orbital puncture, and then the mice were euthanized by cervical dislocation. The liver was isolated, weighted, and divided into three fractions: one fraction was fixed with 4% neutral-buffered formalin for Oil Red staining; another fraction was frozen in liquid nitrogen and stored at −80°C for the BA targeted analysis, lipidomic analysis, and qPCR analysis; the remaining fraction was embedded with 3% carboxymethylcellulose (CMC) for MSI analysis. The ileum was also isolated, weighted, and stored at −80°C for the BA targeted analysis and qRT-PCR analysis. […]
The TG level in the liver was determined using a triglyceride enzymatic assay kit (Applygen). […] The total BA level in the liver was determined using a Total Bile Acid (TBA) Colorimetric Assay Kit (Elabscience). […] Both the TG and TBA results were normalized by the protein concentration determined by bicinchoninic acid (BCA) method using a BCA kit (Applygen).

C57BL/6N mice [4] = experiment: Oil Red O lipid staining of liver sections; type: in vivo; conditions: TPHP exposure groups
Method: as §1, with “dislocation.” for “dislocation. The liver was isolated, weighted, and divided into three fractions: one fraction was fixed with 4% neutral-buffered formalin for Oil Red staining; another fraction was frozen in liquid nitrogen and stored at −80°C for the BA targeted analysis, lipidomic analysis, and qPCR analysis; the remaining fraction was embedded with 3% carboxymethylcellulose (CMC) for MSI analysis. The ileum was also isolated, weighted, and stored at −80°C for the BA targeted analysis and qRT-PCR analysis.”

PPARγ = test system: PPARγ; parameters: method as in PMID 34340181; conditions: in vitro assays and in silico molecular docking; cited from earlier work
PXR = conditions: in vitro assays and in silico molecular docking; cited from earlier work

## O=P(Oc1ccccc1)(Oc1ccccc1)Oc1ccccc1 [TPHP, triphenyl phosphate]
[1]
  Relative activity, agonist mode: 0.00%
[2]; 3.13 μM TPHP
  Response (RU): 1.43 RU
[2]; 6.25 μM TPHP
  Response (RU): 1.99 RU
[2]; 12.5 μM TPHP
  Response (RU): 3.33 RU
[2]; 25 μM TPHP
  Response (RU): 6.18 RU
[2]; 50 μM TPHP
  Response (RU): 11.56 RU
[2]; 100 μM TPHP
  Response (RU): 20.62 RU
[2]; 200 μM TPHP
  Response (RU): 25.20 RU
C57BL/6N mice [3]; TPHP exposure groups
  Hepatic TG concentrations vs control group (in words): significantly higher
C57BL/6N mice [3]; TPHP-H: 50 mg/kg daily oral gavage 35 d
  Hepatic TG: 731.21 μmol/g prot and 811.79 μmol/g prot and 765.68 μmol/g prot
C57BL/6N mice [3]; TPHP-L: 10 mg/kg daily oral gavage 35 d
  Hepatic TG: 784.11 μmol/g prot and 752.79 μmol/g prot and 725.51 μmol/g prot
C57BL/6N mice [4]
  Oil Red O staining intensity of liver sections vs control (in words): higher
PPARγ
  PPARγ activity reported (in words): agonists
PXR
  PXR activity reported (in words): agonists
